Experimental data from PMC11855827, “High-Throughput Screening of Five Compound Libraries for Anthelmintic Activity and Toxicity Leads to the Discovery of Two Flavonoid Compounds” (International Journal of Molecular Sciences, 2025).
Read-outs that look alike come from different tables or passages of the source.

Tested on: C. elegans
Experiment: microbe, parasite or virus in culture
Settings: Caenorhabditis elegans
[1] = 0 h, read-out: Percentage of motility inhibition 0 h, Table S2, C. elegans SS assay, 110 μM, 0 h, averages of 4 data points
[2] = 24 h, read-out: Percentage of motility inhibition 24 h, Table S2, C. elegans SS assay, 110 μM, 24 h, averages of 4 data points
[3] = 0 h, read-out: Percentage of motility inhibition 0 h
[4] = 24 h, read-out: Percentage of motility inhibition 24 h

| SMILES | inhibition at 110 µM [1] [%] | inhibition at 110 µM [2] [%] | inhibition at 110 µM [3] [%] | inhibition at 110 µM [4] [%] |
| --- | --- | --- | --- | --- |
| C=C1[C@@H]2CC[C@@H]3[C@](C2)(C(=O)[C@@H](O)[C@@H]2C(C)(C)[C@H]4CC(=O)[C@@]32CO4)[C@@H]1OC(C)=O [Maoecrystal A] | 7 | 2 |  |  |
| C=CC1(C)Cc2occ(C)c2C(=O)C1C(=C)C (stereo not drawn) [Curzerenone] | 10 | 9 |  |  |
| C[C@H](O)C(=O)O [L-Lactic acid] | 16 | 21 |  |  |
| CC[C@@H]1CN2CC[C@@]3(C(=O)Nc4ccccc43)[C@@H]2C[C@@H]1/C(=C\OC)C(=O)OC [Corynoxine] | 3 | 3 |  |  |
| Cc1nc(C)c(Cl)c(O)c1Cl [Clopidol] | 7 | 11 |  |  |
| Oc1cc(O)c2c(c1)O[C@@H](c1ccc(O)c(O)c1)[C@H](O)C2 [(‐)‐Catechin] | 8 | 9 |  |  |
| Cc1cc(C)nc(NS(=O)(=O)c2ccc(N)cc2)n1 [Sulfamethazine] | 5 | 3 |  |  |
| CC(=O)OCC1=C[C@H](O)[C@@H]2C(C(=O)O)=CO[C@@H](O[C@@H]3O[C@H](CO)[C@@H](O)[C@H](O)[C@H]3O)[C@H]12 [Asperulosidic Acid] | 2 | 0 |  |  |
| Nc1cc(C(Cl)=C(Cl)Cl)c(S(N)(=O)=O)cc1S(N)(=O)=O [Clorsulon] | 12 | 5 |  |  |
| Oc1c(Cl)cc(Cl)c2cccnc12 [Chloroxine] | 43 | 34 |  |  |
| CCN1C[C@]2(COC)CC[C@H](OC)[C@]34C1[C@H]([C@H](OC)[C@H]23)[C@@]1(OC(C)=O)C[C@H](OC)[C@@]2(O)C[C@@H]4[C@@H]1[C@H]2OC(=O)c1ccc(OC)cc1 [Crassicauline A] | 0 | 0 |  |  |
| Cc1ncc(C[n+]2csc(CCO)c2C)c(N)n1 [Thiamine monochloride] | 13 | 6 |  |  |
| O=c1c(O)c(-c2cc(O)c(O)c(O)c2)oc2cc(O)ccc12 [Robinetin] | 39 | 7 |  |  |
| CCN1C[C@]2(COC)CC[C@H](OC)[C@]34C1[C@H](C[C@H]23)[C@@]1(O)C[C@H](OC)[C@H]2C[C@@H]4[C@@H]1[C@H]2O [Talatisamine] | 6 | 0 |  |  |
| C[C@H](CC[C@@H](O)C(C)(C)O)[C@H]1CC[C@@]2(C)[C@@H]3CC=C4[C@@H](CC[C@H](O)C4(C)C)[C@]3(C)C(=O)C[C@]12C [Bryodulcosigenin] | 16 | 15 |  |  |
| O[C@H]1[C@H]2c3cc4c(cc3CN3CCC(=C[C@@H]1O)[C@H]23)OCO4 [Lycorine] | 34 | 0 |  |  |
| C=C1C[C@@]23CC[C@H]4[C@@](C)(CCC[C@@]4(C)C(=O)O[C@@H]4O[C@H](CO)[C@@H](O)[C@H](O)[C@H]4O)[C@@H]2CC[C@]1(O[C@@H]1O[C@H](CO)[C@@H](O)[C@H](O)[C@H]1O[C@@H]1O[C@@H](C)[C@H](O)[C@@H](O)[C@H]1O)C3 [Dulcoside A] | 0 | 11 |  |  |
| Nc1ccn([C@@H]2O[C@H](CO)[C@@H](O)[C@H]2O)c(=O)n1 [Cytidine] | 12 | 5 |  |  |
| CC(C)=CCC[C@@H](C)[C@@H]1CC[C@]2(C)C3=C(CC[C@@]12C)[C@@]1(C)CC[C@H](O)C(C)(C)[C@@H]1CC3 [Euphol] | 0 | 41 |  |  |
| COc1cc(C=O)cc(OC)c1O [Syringaldehyde] |  |  | 4 | 3 |
| C=CC(C)(O)CCC=C(C)CCC=C(C)C (mixture of isomers) [Nerolidol] | 7 | 7 |  |  |
| N=C(N)NCCC[C@H](N)C(=O)O [L-Arginine] |  |  | 0 | 0 |
| COc1cc2c(cc1OC)[C@@H](Cc1ccc(Oc3cc(C[C@@H]4c5cc(OC)c(OC)cc5CCN4C)ccc3O)cc1)N(C)CC2 [Dauricine] |  |  | 2 | 9 |
| O=C(OCc1ccccc1)c1ccccc1 [Benzyl benzoate] | 35 | 36 |  |  |
| COc1ccc2c(c1OC)C(=O)O[C@@H]2[C@H]1c2cc3c(cc2CCN1C)OCO3 [Hydrastine] | 0 | 19 |  |  |
| C=C(C)[C@@H](CC=C(C)C)C[C@@]12C[C@@H](CC=C(C)C)C(C)(C)[C@@](CC=C(C)C)(C(=O)C(C(=O)c3ccc(O)c(O)c3)=C1O)C2=O [Garcinol] | 8 | 3 |  |  |
| O=c1c(O)c(-c2ccccc2)oc2cc(O)cc(O)c12 [Galangin] | 10 | 8 |  |  |

| SMILES | inhibition at 110 µM [1] [%] | inhibition at 110 µM [2] [%] | inhibition at 110 µM [3] [%] | inhibition at 110 µM [4] [%] |
| --- | --- | --- | --- | --- |
| COC(=O)C1=CO[C@@H](O[C@@H]2O[C@H](CO)[C@@H](O)[C@H](O)[C@H]2O)[C@H]2[C@@H]1[C@H](O)C[C@]2(C)O [Shanzhiside methyl ester] | 32 | 38 |  |  |
| O=C(OCC1=C[C@@H](O)[C@@H]2C=CO[C@@H](O[C@@H]3O[C@H](CO)[C@@H](O)[C@H](O)[C@H]3O)[C@H]12)c1ccc(O)cc1 [Agnuside] | 2 | 15 |  |  |
| C/C=C1/[C@H](O[C@@H]2O[C@H](CO)[C@@H](O)[C@H](O)[C@H]2O)OC=C(C(=O)OC)[C@H]1CC(=O)OCCc1ccc(O)c(O)c1 [Oleuropein] | 0 | 0 |  |  |
| O=C(Nc1ncc([N+](=O)[O-])s1)c1ccccc1O [Tizoxanide] | 40 | 53 |  |  |
| Oc1c(I)cc(Cl)c2cccnc12 [Clioquinol] | 23 | 0 |  |  |
| O=C(O)[C@@H]1[C@H]2C[C@H]3c4[nH]c5ccccc5c4CCN3C[C@@H]2CC[C@@H]1O [Yohimbic acid] | 4 | 51 |  |  |
| C/C1=C\CCC2=C[C@@H](OC2=O)c2c(C)coc2C1 [Linderalactone] | 0 | 45 |  |  |
| CC(C)=CCC[C@H](C(=O)O)[C@H]1CC[C@]2(C)C3=C(CC[C@@]12C)[C@@]1(C)CCC(=O)C(C)(C)[C@H]1CC3 [β-Elemonic acid] | 23 | 28 |  |  |
| CC12CC3OC4O[C@H](CO)[C@@H](O)[C@H](O)[C@H]4OC34CC1C4(COC(=O)c1ccccc1)C(=O)O2 (stereo partly drawn) [Lactiflorin] | 0 | 11 |  |  |
| C[C@H](CO)C1=C(O)C(=O)c2c(ccc3c2CCCC3(C)C)C1=O [Neocryptotanshinone] | 18 | 25 |  |  |
| O=C(O)c1ccccc1O [Salicylic acid] | 12 | 8 |  |  |
| C[C@@H]1O[C@@H](OC[C@H]2O[C@@H](Oc3c(-c4ccc(O)c(O)c4)oc4cc(O)cc(O)c4c3=O)[C@H](O)[C@@H](O)[C@@H]2O)[C@H](O)[C@H](O)[C@H]1O [Rutin] | 4 | 0 |  |  |
| Cc1cc(-n2c(=O)[nH]c(=O)n(C)c2=O)ccc1Oc1ccc(SC(F)(F)F)cc1 [Toltrazuril] | 31 | 2 |  |  |
| CC[C@H]1OC(=O)[C@H](C)[C@@H](O[C@H]2C[C@@](C)(OC)[C@@H](O)[C@H](C)O2)[C@H](C)[C@@H](O[C@@H]2O[C@H](C)C[C@H](N(C)C)[C@H]2O)[C@](C)(O)C[C@@H](C)/C(=N\OCOCCOC)[C@H](C)[C@@H](O)[C@]1(C)O [Roxithromycin] | 22 | 4 |  |  |
| CC1(C)C[C@@H](O)[C@]2(C)CC[C@]3(C)C(=CC[C@@H]4[C@@]5(C)CC[C@H](O)[C@](C)(CO)[C@@H]5CC[C@]43C)[C@@H]2C1 [Soyasapogenol B] | 9 | 39 |  |  |
| N#Cc1ccc(C(c2ccc(C#N)cc2)n2cncn2)cc1 [Letrozole] | 0 | 0 |  |  |
| CC(C)(O)[C@@H]1[C@H]2OC(=O)[C@@H]1[C@]1(O)C[C@H]3O[C@]34C(=O)O[C@H]2[C@]14C [Picrotin] | 0 | 0 |  |  |
| COc1ccc2cc1Oc1ccc(cc1)C[C@H]1c3cc(c(OC)cc3CCN1C)Oc1c(O)c(OC)cc3c1[C@H](C2)N(C)CC3 [Fangchinoline] | 0 | 0 |  |  |
| C/C(=C\C(=O)CC(C)C(=O)O)[C@H]1C[C@H](O)[C@@]2(C)C3=C(C(=O)C[C@]12C)[C@@]1(C)CCC(=O)C(C)(C)[C@@H]1C[C@@H]3O (stereo partly drawn) [Ganoderenic acid A] | 0 | 0 |  |  |
| CC(C)(C)C(O)(CCc1ccc(Cl)cc1)Cn1cncn1 (stereo not drawn) [Tebuconazole] | 32 | 1 |  |  |
| C[C@H]1CC[C@]2(NC1)O[C@H]1C[C@H]3[C@@H]4CC[C@H]5C[C@@H](O)CC[C@]5(C)[C@H]4CC[C@]3(C)[C@H]1[C@@H]2C [Tomatidine] | 6 | 0 |  |  |
| COc1ccc2c(OC)c3ccoc3nc2c1 [Evolitrine] | 0 | 15 |  |  |
| COc1c(OC)c2nccc3c4ccccc4n(c1=O)c23 [4,5‐Dimethoxycanthin‐6‐one] | 0 | 22 |  |  |
| O=C(O)c1cccnc1 [Niacin] | 0 | 14 |  |  |
| OC[C@@H](O)[C@H](O)[C@@H](O)CO [Xylitol] | 22 | 13 |  |  |
| C[C@@H]1CC[C@]2(C(=O)O)CC[C@]3(C)C(=CC[C@@H]4[C@@]5(C)C[C@@H](O)[C@@H](O)C(C)(C)[C@@H]5CC[C@]43C)[C@@H]2[C@]1(C)O [Euscaphic acid] | 18 | 27 |  |  |
| CC(C)OC(=O)[C@H](C)N[P@](=O)(OC[C@H]1O[C@@H](n2ccc(=O)[nH]c2=O)[C@](C)(F)[C@@H]1O)Oc1ccccc1 [PSI‐7977] | 6 | 11 |  |  |
